In patent US20250114486A1, “MARKED FATTY ACID DERIVATIVE, PRECURSOR COMPOUND THEREOF, AND USE THEREOF IN CONTRAST AGENT” (BEIJING NORMAL UNIVERSITY, priority 2022, published 2025):
Where “and” joins values, the source holds several entries; their conditions need not be identical. Equal entries are not always repeated.

What was measured:
[1] = In vivo biodistribution of radioactive ^99mTc complexes in female SD rats; set-up: species or system female Sprague-Dawley (SD) rats; conditions: for Biodistribution: Large Intestine / Biodistribution: Small Intestine / Biodistribution: Stomach: unit % ID
Method in brief: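 Fasted female SD rats (n=3 per time point) received 200 μL of 99mTc complex in saline with 10% ethanol (about 250-350 μCi/mL) by tail vein. Organs and blood collected, weighed and counted at 15, 30, 60, 120 and 240 min; uptake given as % ID/g (% ID for intestines and stomach), mean±SD.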

[2] = test system: fatty acid β-oxidation; assay: TMZ (trimetazidine hydrochloride) blocking experiment, biodistribution in female SD rats; format: in vivo
Description: Female SD rats (180-220 g, n=3) were fasted for 12 h before the experiment, and the purified radioactive 99mTc complexes 78-81 were prepared into physiological saline (containing 10% ethanol) solutions of about 250-350 μCi/mL. 200 μL of the above solution was injected into the tail vein of female SD rats, and the rats were killed by cervical dislocation at five time points, 15, 30, 60, 120 and 240 min after the tail vein injection. The blood, brain, heart, liver, spleen, lung, kidney, muscle, bone, large intestine, small intestine, stomach and tail were collected, weighed and counted, and the count distribution of each tissue and organ was calculated (unit: % ID/g, the unit of large intestine, small intestine and stomach is % ID), and the data are the mean±standard deviation of three mice in each phase. At the same time, 200 μL of the above solution was diluted to 20 mL, which was used as the % ID without deducting the tail count.
Trimetazidine hydrochloride (TMZ) is a widely used anti-anginal drug and an inhibitor of fatty acid β-oxidation. […] Therefore, in order to investigate the sensitivity of radioactive ^99mTc complex 80 to fatty acid β-oxidation, we first performed a TMZ blocking experiment from the perspective of biodistribution. Among them, SD rats killed 60 min after injection were divided into two groups: one group of fasting female SD rats were injected with saline (0.2 mL) solution containing TMZ (40 mg/kg) and our radiotracer ^99mTc complex 80 (TMZ administration group), and the other group of fasting female SD rats were injected with radioactive ^99mTc complex 80 only (control group). The absolute myocardial uptake of the control SD rats and the TMZ-administered SD rats was compared 60 min after the tail vein injection of our radiotracer 80 (corresponding to the time point of the peak absolute myocardial uptake). […] The effect of TMZ administration on the metabolic fate of the radioactive ^99mTc complex 80 will also be discussed in Example 4 below.

[3] = Metabolism study in female SD rats (modified Folch extraction, ^99mTc gamma counting); format: in vivo
Description: Female SD rats (180-220 g, fasted overnight) were injected with […] radioactive ^99mTc complex 80 (200-300 μCi, dissolved in 10% EtOH saline, 1000 μL) (n=3) through the tail vein. Heart, intestine and liver samples were collected at 60 min and 120 min after injection. Among them, the SD rats killed at 60 min post-injection were divided into two groups: one group of fasting female SD rats were injected with saline (0.2 mL) solution containing fatty acid β-oxidation inhibitor TMZ (40 mg/kg) and our radiotracer (TMZ-administratied group), and the other group of fasting female SD rats were injected with radioactive ^99mTc complex 80 only (control group). Heart, intestine or liver samples were homogenized in a mixture of CHCl3—CH3OH in a volume ratio of 2:1, then 40% urea and 5% sulfuric acid aqueous solution were added, and they were sonicated and centrifuged at 2000 rpm for 10 min (a modified Folch extraction method). The ^99mTc gamma counting were performed on the resulting aqueous phase, organic phase and residual tissue particle phase (n=3).
In addition, the residual tissue particles obtained from the heart samples were measured for radioactivity counts, then heated and dissolved in 1 mol/L NaOH solution at 90° C. for 1 h, cooled, and then treated with 50% trichloroacetic acid (TCA). After centrifugation at 2000 rpm for 10 min, the obtained supernatant and precipitate were ^99mTc gamma counting.

[4] = female SD rats, 60 min, blocked by trimetazidine hydrochloride (TMZ 40 mg/kg)
[5] = female SD rats, 60 min, blocked by trimetazidine hydrochloride (TMZ 40 mg/kg), unit % ID
[6] = heart in TMZ-administrated SD rats (TMZ 40 mg/kg), 60 min
[7] = heart in control SD rats, 60 min, percentage of total ^99mTc radioactivity counts
[8] = heart in control SD rats, 120 min
[9] = intestine in control SD rats, 60 min
[10] = intestine in control SD rats, 120 min
[11] = liver in control SD rats, 60 min
[12] = liver in control SD rats, 120 min

COC(C)(C)C[N+]#[C][99Tc-5]([C]#[N+]CC(C)(C)OC)([C]#[N+]CC(C)(C)OC)([C]#[N+]CC(C)(C)OC)([C]#[N+]CC(C)(C)OC)[C]#[N+]CC(C)(C)OCCCCCSCCCCC(=O)O [^99mTc complex 80]
Biodistribution: Large Intestine ([1]; 120 min post-injection): 22.13 ± 2.94 % ID | Biodistribution: Small Intestine ([1]; 120 min post-injection): 5.02 ± 0.82 % ID | Biodistribution: Stomach ([1]; 120 min post-injection): 0.55 ± 0.08 % ID | Biodistribution: Blood ([1]; 240 min post-injection): 0.007 ± 0.001 ID %/g | Biodistribution: Bone ([1]; 240 min post-injection): 0.043 ± 0.003 ID %/g | Biodistribution: Brain ([1]; 240 min post-injection): 0.007 ± 0.002 ID %/g | Biodistribution: Heart ([1]; 240 min post-injection): 0.93 ± 0.09 ID %/g | Biodistribution: Kidney ([1]; 240 min post-injection): 0.49 ± 0.03 ID %/g | Biodistribution: Liver ([1]; 240 min post-injection): 0.17 ± 0.03 ID %/g | Biodistribution: Lungs ([1]; 240 min post-injection): 0.06 ± 0.01 ID %/g | Biodistribution: Muscle ([1]; 240 min post-injection): 0.22 ± 0.02 ID %/g | Biodistribution: Spleen ([1]; 240 min post-injection): 0.06 ± 0.01 ID %/g | Heart-to-Blood ratio ([1]; 240 min post-injection): 141.90±22.86 | Heart-to-Liver ratio ([1]; 240 min post-injection): 5.56±1.30 | Heart-to-Lungs ratio ([1]; 240 min post-injection): 15.00±3.18 | absolute myocardial uptake value ([1]; 240 min post-injection): 0.93±0.09 % ID/g | Biodistribution: Large Intestine ([1]; 240 min post-injection): 22.41 ± 1.13 % ID | Biodistribution: Small Intestine ([1]; 240 min post-injection): 7.36 ± 0.64 % ID | Biodistribution: Stomach ([1]; 240 min post-injection): 0.20 ± 0.02 % ID | absolute myocardial uptake peak value ([1]; peak at 60 min post-injection): 2.06±0.06 % ID/g | decrease of absolute myocardial uptake value ([1]; within 60-240 min post-injection): 54.9% | decrease of absolute myocardial uptake, TMZ-administered vs control SD rats ([2]; 60 min post-injection, TMZ 40 mg/kg, P<0.01): 51% | sensitivity to myocardial fatty acid β-oxidation ([2]; TMZ blocking, female SD rats): quite sensitive | Biodistribution: Blood [2, 4]: 0.024 ± 0.003 ID %/g | Biodistribution: Bone [2, 4]: 0.07 ± 0.01 ID %/g | Biodistribution: Brain [2, 4]: 0.009 ± 0.005 ID %/g | Biodistribution: Heart [2, 4]: 1.01 ± 0.19 ID %/g | Biodistribution: Kidney [2, 4]: 0.97 ± 0.28 ID %/g | Biodistribution: Liver [2, 4]: 0.51 ± 0.16 ID %/g | Biodistribution: Lungs [2, 4]: 0.16 ± 0.02 ID %/g | Biodistribution: Muscle [2, 4]: 0.31 ± 0.06 ID %/g | Biodistribution: Spleen [2, 4]: 0.10 ± 0.04 ID %/g | Heart-to-Blood ratio [2, 4]: 41.25 ± 3.12 | Heart-to-Liver ratio [2, 4]: 2.06 ± 0.41 | Heart-to-Lungs ratio [2, 4]: 6.28 ± 0.29 | Biodistribution: Large Intestine [2, 5]: 15.54 ± 6.05 % ID | Biodistribution: Small Intestine [2, 5]: 16.59 ± 4.32 % ID | Biodistribution: Stomach [2, 5]: 1.10 ± 0.19 % ID | reduction of residual tissue granular phase proportion, TMZ-treated vs control heart samples ([3]; 60 min after injection, P<0.01): 61% | precipitated ^99mTc radioactivity count as share of residual tissue granular phase ([3]; control SD rat heart, 60 min, dissolved in 1 mol/L NaOH 90° C. 1 h, 50% trichloroacetic acid added): 86.0% | % aqueous fraction [3, 6]: 0.29 ± 0.06% | % organic fraction [3, 6]: 73.11±2.03% | % residual tissue pellet [3, 6]: 26.60±2.09% | % aqueous fraction [3, 7]: 0.50 ± 0.21% | % organic fraction [3, 7]: 31.38±2.48% | % residual tissue pellet [3, 7]: 68.54±3.66% and 68.12 ± 2.69% | % aqueous fraction [3, 8]: 0.53 ± 0.23% | % organic fraction [3, 8]: 33.20 ± 4.56% | % residual tissue pellet [3, 8]: 66.27±34.54% and 66.27 ± 4.54% | % aqueous fraction [3, 9]: 0.54 ± 0.24% | % organic fraction [3, 9]: 38.76 ± 5.69% | % residual tissue pellet [3, 9]: 60.70±5.71% | % aqueous fraction [3, 10]: 1.68 ± 0.44% | % organic fraction [3, 10]: 32.77 ± 3.98% | % residual tissue pellet [3, 10]: 65.55±3.54% | % aqueous fraction [3, 11]: 0.66 ± 0.21% | % organic fraction [3, 11]: 35.30 ± 4.75% | % residual tissue pellet [3, 11]: 64.04±4.90% | % aqueous fraction [3, 12]: 0.85 ± 0.30% | % organic fraction [3, 12]: 31.92 ± 3.83% | % residual tissue pellet [3, 12]: 67.23 ± 4.08%
